We go through 53 molecules from patent US8697694B2, “Substituted pyridine and pyrimidine derivatives and their use in treating viral infections” (priority 2008, dated 2014).

Bounds are passed on as bounds.

For the first assay, the system named is HCV replicon cells. As to the kind of experiment: Cell-based HCV replicon assay (replicon RNA level by real time PCR, Taqman). The note with it: Hepatitis C virus, 72 h, HCV replicon cells, harvested day 3, replicon RNA by real time PCR; given as number; read-out: EC90 (μM) range. In outline: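 Readout: ΔCT between NS5B replicon RNA and GAPDH by real-time RT-PCR in lysates harvested on day 3, fitted sigmoidally; EC50 at ΔCT=1, EC90 at ΔCT=3.2. Compounds tested at ten 2-fold dilutions from 25 μM to 1 μM start, 10% FBS, 0.5% DMSO.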
(In general: In antiviral work, replicon cells carry a viral genome segment that copies itself.)
As usually defined, the EC90 is the concentration needed for an effect of 90%. With `COc1cc(CNc2nc(C)c(-c3cc4cc(OCC5CC5)ncc4o3)c(N[C@@H]3C[C@H](CO)[C@@H](O)[C@H]3O)n2)cc(OC)c1` [Example 56], the EC90 worked out at 0.06 µM.

Still in this assay, the particulars now being: Hepatitis C virus, 72 h, HCV replicon cells, harvested day 3, replicon RNA by real time PCR; reported as range class; read-out: EC90 (μM) range.
As for `COCc1cc2cc(-c3c(Cl)nc(N)nc3N[C@@H]3C[C@H](CO)[C@@H](O)[C@H]3O)oc2c(C)n1` [Example 311], the EC90 is less than 0.5 µM.

For `Cc1nc(NCC2CC2)nc(N[C@@H]2C[C@H](CO)[C@@H](O)[C@H]2O)c1-c1cc2cc(-c3cccs3)nc(C)c2o1` [Example 43], the EC90 is greater than 5 µM.

`CCCOCCNc1nc(C)c(-c2nc3ccccc3s2)c(N[C@@H]2C[C@H](CO)[C@@H](O)[C@H]2O)n1` [Example 227]: the concentration for an effect of 90% (EC90) is less than 0.5 µM.

As for `COc1ccc2nc(-c3c(Cl)nc(N)nc3N[C@@H]3C[C@H](CO)[C@@H](O)[C@H]3O)sc2c1` [Example 181], the EC90 was less than 0.5 µM.

In the case of `Nc1nc(Cl)c(-c2cc3cnc(=O)[nH]c3o2)c(N[C@@H]2C[C@H](CO)[C@@H](O)[C@H]2O)n1` [Example 307], the EC90 was greater than 5 µM.

In the case of `COCCNc1nc(Cl)c(-c2cc3cc(OC)nc(C)c3o2)c(N[C@@H]2C[C@H](CO)[C@@H](O)[C@H]2O)n1` [Example 18], the concentration for an effect of 90% (EC90) was less than 0.5 µM.

The same assay, now with this note: Hepatitis C virus, 72 h, HCV replicon cells, harvested on day 3, replicon RNA by real time PCR; calculated EC90 reported as range class; read-out: EC90 (μM) range.
With `COCc1cc2cc(-c3c(C)nc(NCC(C)(C)C)nc3N[C@@H]3C[C@H](CO)[C@H]4OC(C)(C)O[C@H]43)oc2cn1` [Example 714], the EC90 was 0.5 to 5 µM.

As for `Cc1nc(NCc2cccc[n+]2[O-])nc(N[C@@H]2C[C@H](CO)[C@H]3OC(C)(C)O[C@H]32)c1-c1nc2ccccc2s1` [Example 481], the concentration for an effect of 90% (EC90) is greater than 5 µM.

As to `Cc1nc(NCc2cccnc2)nc(N[C@@H]2C[C@H](CO)[C@H]3OC(C)(C)O[C@H]32)c1-c1nc2ccccc2s1` [Example 463], the 90% effect concentration (EC90) is less than 0.5 µM.

For `CCCCCNc1nc(Cl)c(-c2cc3cc(C)nc(C)c3o2)c(N[C@@H]2C[C@H](CO)[C@@H](O)[C@H]2O)n1` [Example 450], the EC90 was less than 0.5 µM.

As to `Cc1nc(NCC2CC2)nc(N[C@@H]2C[C@H](CO)[C@@H](O)[C@H]2O)c1-c1nc2cnccc2s1` [Example 523], the EC90 was less than 0.5 µM.

Consider `Cc1nc(NCC2CC2)nc(N[C@@H]2C[C@H](CO)[C@H]3OC(C)(C)O[C@H]32)c1-c1cc2cc(C(F)(F)F)ncc2o1` [Example 141], for which the EC90 is 0.5 to 5 µM.

For the molecule `Cc1cc(C)cc(CNc2nc(C)c(-c3nc4ccccc4s3)c(N[C@@H]3C[C@H](CO)[C@@H](O)[C@H]3O)n2)c1` [Example 713], the concentration for an effect of 90% (EC90) is less than 0.5 µM.

Regarding `Cc1nc(NCc2cccs2)nc(N[C@@H]2CC[C@H]3OC4(CCCCC4)O[C@@H]23)c1-c1nc2ccccc2s1` [Example 334], the EC90 is greater than 5 µM.

Take `CCc1cc2cc(-c3c(C)nc(NCC(C)C)nc3N[C@@H]3C[C@H](CO)[C@@H](O)[C@H]3O)oc2cn1` [Example 519]: the concentration for an effect of 90% (EC90) is less than 0.5 µM.

In the case of `OC[C@H]1C[C@@H](Nc2nc(NC(CF)CF)nc(Cl)c2-c2nc3ccccc3s2)[C@H](O)[C@@H]1O` [Example 129], the EC90 was less than 0.5 µM.

Take `CCOCCNc1nc(C)c(-c2nc3cc(NC)ccc3s2)c(N[C@@H]2C[C@H](CO)[C@@H](O)[C@H]2O)n1` [Example 259]: the concentration for an effect of 90% (EC90) was less than 0.5 µM.

With `Cc1nc(NCC2CCCCC2)nc(N[C@@H]2C[C@H](CO)[C@@H](O)[C@H]2O)c1-c1nc2ccccc2s1` [Example 323], the 90% effect concentration (EC90) is less than 0.5 µM.

On to `C[C@H](Nc1nc(Cl)c(-c2nc3ccccc3s2)c(N[C@@H]2C[C@H](CO)[C@@H](O)[C@H]2O)n1)C(F)(F)F` [Example 131], for which the 90% effect concentration (EC90) is less than 0.5 µM.

`Cc1csc(CNc2nc(C)c(-c3nc4ccccc4s3)c(N[C@@H]3C[C@H](CO)[C@H]4OC(C)(C)O[C@H]43)n2)c1` [Example 477]: the 90% effect concentration (EC90) is less than 0.5 µM.

`Cc1nc(NCCNC(=O)OCc2ccccc2)nc(N[C@@H]2C[C@H](CO)[C@@H](O)[C@H]2O)c1-c1nc2ccccc2s1` [Example 254]: the EC90 was 0.5 to 5 µM.

Regarding `OC[C@H]1C[C@@H](Nc2nc(NCC3CCOCC3)nc(Cl)c2-c2nc3ccccc3s2)[C@H](O)[C@@H]1O` [Example 447], the 90% effect concentration (EC90) was less than 0.5 µM.

As for `OC[C@H]1C[C@@H](Nc2nc(NCc3ccccc3F)nc(Cl)c2-c2nc3ccccc3s2)[C@H](O)[C@@H]1O` [Example 232], the EC90 was less than 0.5 µM.

For `CN(C)c1nc(N[C@@H]2C[C@H](CO)[C@@H](O)[C@H]2O)c(-c2nc3ccccc3s2)c(C2CC2)n1` [Example 416], the EC90 is 0.5 to 5 µM.

For `Cc1nc(N[C@@H](C)C(F)(F)F)nc(N[C@@H]2C[C@H](CO)[C@@H](O)[C@H]2O)c1-c1nc2ccccc2s1` [Example 132], the 90% effect concentration (EC90) was 0.5 to 5 µM.

Staying with this assay, now noted: Hepatitis C virus, 72 h, HCV replicon cells, replicon RNA level by real time PCR (Taqman), day 3; calculated EC90; read-out: EC90 (μM) range.
For `Cc1nc(N[C@@H](C2CC2)C(F)(F)F)nc(N[C@@H]2C[C@H](CO)[C@@H](O)[C@H]2O)c1-c1nc2ccccc2s1` [Example 2013], the 90% effect concentration (EC90) is 0.5 to 5 µM.

`Cc1nc(NCCc2ccc(C(C)(C)C)cc2)nc(N[C@@H]2C[C@H](CO)[C@@H](O)[C@H]2O)c1-c1nc2cnccc2s1` [Example 2012]: the concentration for an effect of 90% (EC90) is less than 0.5 µM.

The same assay, now with this note: Hepatitis C virus, 72 h, HCV replicon cells, replicon RNA level by real time PCR (Taqman), harvested on day 3; calculated EC90 reported as range class; read-out: EC90 (μM) range.
Turning to `COCCCCNc1nc(C)c(-c2nc3ccccc3s2)c(N[C@@H]2C[C@H](CO)[C@@H](O)[C@H]2O)n1` [Example 1048], the concentration for an effect of 90% (EC90) is less than 0.5 µM.

For `COc1cc2cc(-c3c(C)nc(NCC4CC4)nc3N[C@@H]3C[C@H](CO)[C@H]4OC(C)(C)O[C@H]43)oc2c(OC)n1` [Example 1126], the EC90 is 0.5 to 5 µM.

In the case of `Cc1nc(NCCC(=O)O)nc(N[C@@H]2C[C@H](CO)[C@@H](O)[C@H]2O)c1-c1nc2ccccc2s1` [Example 1012], the concentration for an effect of 90% (EC90) was greater than 5 µM.

For the molecule `CNc1ccc2oc(-c3c(C)nc(NCC4CC4)nc3N[C@@H]3C[C@H](CO)[C@@H](O)[C@H]3O)nc2c1` [Example 1065], the 90% effect concentration (EC90) was 0.5 to 5 µM.

Regarding `Cc1nc(NCC(F)(F)F)nc(N[C@@H]2C[C@H](CN3CCOCC3)[C@@H](O)[C@H]2O)c1-c1nc2ccccc2s1` [Example 1015], the EC90 is 0.5 to 5 µM.

For `COc1cccc2sc(-c3c(C)nc(NCC(F)(F)F)nc3N[C@@H]3C[C@H](CO)[C@@H](O)[C@H]3O)nc12` [Example 1070], the 90% effect concentration (EC90) was 0.5 to 5 µM.

Regarding `CCc1cc2cc(-c3c(C)nc(O)nc3N[C@@H]3C[C@H](CO)[C@@H](O)[C@H]3O)oc2cn1` [Example 1303], the EC90 is 0.5 to 5 µM.

As to `CCOCCNc1nc(C)c(-c2nc3ccccc3s2)c(N[C@@H]2C[C@H](C(F)F)[C@@H](O)[C@H]2O)n1` [Example 1019], the EC90 is less than 0.5 µM.

In the case of `COc1ccccc1Nc1nc(C)c(-c2nc3ccccc3s2)c(N[C@@H]2C[C@H](CO)[C@@H](O)[C@H]2O)n1` [Example 1123], the concentration for an effect of 90% (EC90) was 0.5 to 5 µM.

`Cc1nc(NCc2cccc(CN(C)C)c2)nc(N[C@@H]2C[C@H](CO)[C@H]3OC(C)(C)O[C@H]32)c1-c1nc2ccccc2s1` [Example 1118]: the EC90 was greater than 5 µM.

The assay is the same for the next values; noted with them: Hepatitis C virus, 72 h, HCV replicon cells, replicon RNA level by real time PCR, harvested day 3; read-out: EC90 (μM) range.
For `Cc1nc(NCC2CC2)nc(N[C@@H]2C[C@H](CO)[C@@H](O)[C@H]2O)c1-c1cc2ccccc2s1` [Example 1603], the EC90 is greater than 5 µM.

For `Cc1nc(NCC(F)(F)F)nc(N[C@@H]2C[C@H](CNS(=O)(=O)CC(F)(F)F)[C@@H](O)[C@H]2O)c1-c1nc2ccccc2s1` [Example 1520], the EC90 was in the range of 0.5 to 5 µM.

For `CCOc1ccc(CCNc2nc(C)c(-c3nc4cnccc4s3)c(N[C@@H]3C[C@H](CO)[C@@H](O)[C@H]3O)n2)cc1` [Example 1705], the concentration for an effect of 90% (EC90) was less than 0.5 µM.

Turning to `Cc1nc(N[C@H](C)c2ccc(OC(F)(F)F)cc2)nc(N[C@@H]2C[C@H](C(C)O)[C@@H](O)[C@H]2O)c1-c1nc2cnccc2s1` (some centres unmarked) [Example 1649], the EC90 is less than 0.5 µM.

Regarding `Cc1nc(NCC2CC2)nc(N[C@@H]2CC[C@@H](O)[C@@]2(C)O)c1-c1nc2cnccc2s1` [Example 1704], the concentration for an effect of 90% (EC90) is less than 0.5 µM.

In the case of `CO[C@@H]1[C@H](O)[C@@H](CO)C[C@H]1Nc1nc(NCC(F)(F)F)nc(C)c1-c1nc2ccccc2s1` [Example 1341], the EC90 was less than 0.5 µM.

With `Cc1nc(N[C@H](c2cccs2)C(F)(F)F)nc(N[C@@H]2C[C@H](CO)[C@@H](O)[C@H]2O)c1-c1nc2ccccc2s1` [Example 1803], the EC90 is greater than 5 µM.

As for `Cc1ccc([C@@H](C)Nc2cc(C)c(-c3nc4ccccc4s3)c(N[C@@H]3C[C@H](CO)[C@@H](O)[C@H]3O)n2)cc1` [Example 1619], the EC90 was greater than 5 µM.

In the case of `Cc1nc(NCC(F)(F)F)nc(N[C@@H]2C[C@H](C(O)c3ncc[nH]3)[C@@H](O)[C@H]2O)c1-c1nc2ccccc2s1` (some centres unmarked) [Example 1654], the 90% effect concentration (EC90) was 0.5 to 5 µM.

On to `CCCc1nccc2sc(-c3c(C)nc(N[C@H](C)C4CC4)nc3N[C@@H]3C[C@H](CNC(=O)OC)[C@@H](O)[C@H]3O)nc12` [Example 1388], for which the EC90 is less than 0.5 µM.

On to `Cc1nc(NC2CC2)nc(N[C@@H]2C[C@H](CO)[C@@H](O)[C@H]2O)c1-c1nc2c(C)nccc2s1` [Example 1543], for which the EC90 was less than 0.5 µM.

Take `CCCc1nccc2sc(-c3c(C)nc(N[C@H](C)C4CC4)nc3N[C@@H]3C[C@H](Cn4ccnn4)[C@@H](O)[C@H]3O)nc12` [Example 1386]: the 90% effect concentration (EC90) is less than 0.5 µM.

For `Cc1ccc([C@@H](C)Nc2nc(C)c(-c3nc4c(C)nccc4s3)c(N[C@@H]3C[C@H](CO)[C@@H](O)[C@H]3O)n2)cc1F` [Example 1358], the EC90 was less than 0.5 µM.

For the molecule `CCCc1nccc2sc(-c3c(C)nc(NC4CC4)nc3N[C@@H]3C[C@H](CO)[C@@H](O)[C@H]3O)nc12` [Example 1535], the 90% effect concentration (EC90) is less than 0.5 µM.

`Cc1nc(NCC(C)(C)C)nc(N[C@H]2C[C@@H](CO)[C@H](O)[C@@H]2O)c1-c1nc2ccccc2s1` [Example 1502]: the EC90 was greater than 5 µM.
